In the supplement of paper PMC10290057:
Structures can show the parent of a compound that is named as a salt.

Assays:
HCT116 [1] = test: AC50 cell viability (CellTiter-Glo); higher = less potent; conditions: 48 h
HCT116 [2] = test: efficacy (fitted maximal change in viability relative to DMSO control); higher = less cytotoxic (negative = loss of viability); conditions: 48 h
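Throughout, for AC50 cell viability (CellTiter-Glo): HCT116 colorectal carcinoma cells screened at five concentrations per compound, luminescent viability scaled between DMSO wells and empty wells on each plate, curves fitted per compound.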
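Throughout, for efficacy (fitted maximal change in viability relative to DMSO control): Luminescence-based viability readout, five doses per compound, normalized against on-plate DMSO and empty-well controls, followed by dose-response curve fitting for every drug.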

## CC(C)C[C@H](NC(=O)CNC(=O)c1cc(Cl)ccc1Cl)B(O)O [Ixazomib]
HCT116 [1]
  AC50 cell viability: 0.0833 µM
HCT116 [2]
  efficacy: -89.3%

## C=CC(=O)Nc1cccc(Nc2nc(Nc3ccc(Oc4ccnc(C(=O)NC)c4)cc3)ncc2F)c1 [CNX-774]
HCT116 [1]
  AC50 cell viability: 14.8 µM
HCT116 [2]
  efficacy: -111%

## ClC1=C[NH]N=C1C\2NC(=N\C3=C2C(=O)CCC3)/NC4=NC5=CC=CC=C5O4 (configuration not stated)
HCT116 [1]
  AC50 cell viability: 18.6 µM
HCT116 [2]
  efficacy: -63.3%

## Cc1ccc(NC(=O)c2ccc3c(c2)OCCO3)cc1NC(=O)c1ccc2nc(OCCN3CCCC3)ccc2c1
HCT116 [1]
  AC50 cell viability: 0.0407 µM
HCT116 [2]
  efficacy: -69.9%

## FC(F)(F)c1ccc(C/N=c2\ccc(Cc3c[nH]c4ncccc34)c[nH]2)cc1 [PLX-647]
HCT116 [1]
  AC50 cell viability: 13.2 µM
HCT116 [2]
  efficacy: -76.1%

## C/C1=C/C(=C(/CNC(=O)C2=CC(=CC3=C2C=N[N]3C4CCCC4)C5=CC=C(CN6CCOCC6)C=C5)C(=O)N1)C
HCT116 [1]
  AC50 cell viability: 20.9 µM
HCT116 [2]
  efficacy: -108%

## CCc1nc(-c2cccc(C)c2)c(-c2ccnc(NC(=O)c3ccccc3)c2)s1 [TAK-715]
HCT116 [1]
  AC50 cell viability: 26.3 µM
HCT116 [2]
  efficacy: -72.7%

## S=C1N\C=N/C2=C1[NH]C=N2 [6-mercaptopurine]
HCT116 [1]
  AC50 cell viability: 1.66 µM
HCT116 [2]
  efficacy: -101%

## CCCCc1ccc2[nH]c(NC(=O)OC)nc2c1 [Parbendazole]
HCT116 [1]
  AC50 cell viability: 0.105 µM
HCT116 [2]
  efficacy: -63.1%

## Cc1ccccc1C(=O)c1ccc(Nc2ccc(Br)cc2N)cc1Cl [EO-1428]
HCT116 [1]
  AC50 cell viability: 20.9 µM
HCT116 [2]
  efficacy: -75.8%

## C[N]1N=CC2=C1C=C(C(=C2)OC3=CC=C(NC(=O)\C4=C\C=C(\C)N(C4=O)C5=CC=C(F)C=C5)C=C3F)C6=C[NH]N=C6 [Merestinib]
HCT116 [1]
  AC50 cell viability: 3.32 µM
HCT116 [2]
  efficacy: -41.2%

## C#Cc1cccc(Nc2ncnc3cc(OC)c(OCCCCCCC(=O)NO)cc23)c1 [CUDC-101]
HCT116 [1]
  AC50 cell viability: 0.332 µM
HCT116 [2]
  efficacy: -81.3%

## Cc1[nH]c2ccc(F)cc2c1-c1nc2c3cccnc3c3ncccc3c2[nH]1 [APTO-253]
HCT116 [1]
  AC50 cell viability: 0.679 µM
HCT116 [2]
  efficacy: -77.4%

## COc1cc2nccc(Oc3ccc(NC(=O)Nc4cc(C)on4)c(Cl)c3)c2cc1OC [Tivozanib (AV-951)]
HCT116 [1]
  AC50 cell viability: 11.8 µM
HCT116 [2]
  efficacy: -80.3%

## OC[C@H]1O[C@H](C[C@@H]1O)N2\C=C(\I)C(=O)NC2=O [Idoxuridine]
HCT116 [1]
  AC50 cell viability: 16.6 µM
HCT116 [2]
  efficacy: -38.3%

## Cc1cc(-c2ncc(CC(=O)Nc3ccc(-c4cnccn4)cn3)cc2C)ccn1 [LGK-974]
HCT116 [1]
  AC50 cell viability: 16.6 µM
HCT116 [2]
  efficacy: -52.5%

## C=CC(=O)Nc1cccc(Nc2nc(Nc3ccc(OCCOC)cc3)ncc2F)c1 [Spebrutinib (AVL-292)]
HCT116 [1]
  AC50 cell viability: 14.8 µM
HCT116 [2]
  efficacy: -107%

## NC1(Cc2ccc(Cl)cc2)CCN(c2ncnc3[nH]ccc23)CC1
HCT116 [1]
  AC50 cell viability: 13.2 µM
HCT116 [2]
  efficacy: -95.2%

## O=C(Nc1nnc(-c2ccco2)o1)c1cc(-c2ccccc2)nc2ccccc12 [STX-0119]
HCT116 [1]
  AC50 cell viability: 14.8 µM
HCT116 [2]
  efficacy: -69.9%

## COc1nnc2ccc(N3CCC(c4ccc(OCCN5CCN(C)C(=O)[C@H]5C)cc4)CC3)nn12 [AZD-5153 6-Hydroxy-2-naphthoic acid]
HCT116 [1]
  AC50 cell viability: 0.0833 µM
HCT116 [2]
  efficacy: -68.6%

## CN(C)CCOc1ccc(/C(=C(/CCCl)c2ccccc2)c2ccccc2)cc1 [Toremifene citrate]
HCT116 [1]
  AC50 cell viability: 20.9 µM
HCT116 [2]
  efficacy: -99.7%

## CN(Cc1ccc(/C=C/C(=O)NO)cc1)CC12CC3CC(CC(C3)C1)C2 [Martinostat]
HCT116 [1]
  AC50 cell viability: 0.263 µM
HCT116 [2]
  efficacy: -89.7%

## CC(C)C[C@@H](C(=O)N[C@H](C(=O)OC1CCCC1)c1ccccc1)[C@H](O)C(=O)NO [Tosedostat]
HCT116 [1]
  AC50 cell viability: 4.17 µM
HCT116 [2]
  efficacy: -95.7%

## OCCN1CCN(CCCN2c3ccccc3Sc3ccc(C(F)(F)F)cc32)CC1 [Fluphenazine hydrochloride]
HCT116 [1]
  AC50 cell viability: 7.42 µM
HCT116 [2]
  efficacy: -94.5%

## CNC(=O)CCc1cc(-c2ccc(-c3ccc(C(F)(F)F)cc3)cc2)n(-c2ccc(N3CCNCC3)cc2)n1 [OSU-T315]
HCT116 [1]
  AC50 cell viability: 6.61 µM
HCT116 [2]
  efficacy: -90.4%

## Nc1nc(F)nc2c1ncn2[C@@H]1O[C@H](COP(=O)(O)O)[C@@H](O)[C@@H]1O [Fludarabine phosphate]
HCT116 [1]
  AC50 cell viability: 7.42 µM
HCT116 [2]
  efficacy: -58.2%

## COc1cc2c(Oc3ccc4[nH]c(C)cc4c3F)ncnc2cc1OCCCN1CCCC1 [Cediranib]
HCT116 [1]
  AC50 cell viability: 14.8 µM
HCT116 [2]
  efficacy: -111%

## CCCCCCNC(=O)N1\C=C(F)/C(=O)NC1=O [Carmofur]
HCT116 [1]
  AC50 cell viability: 4.17 µM
HCT116 [2]
  efficacy: -61.6%

## O=C(NOCC(O)CO)c1ccc(F)c(F)c1Nc1ccc(I)cc1F (configuration not stated)
HCT116 [1]
  AC50 cell viability: 0.166 µM
HCT116 [2]
  efficacy: -68.6%

## Cc1cncc2cccc([S+](=O)([O-])N3CCCN(C(=O)CN)C[C@@H]3C)c12 [Glycyl-H-1152]
HCT116 [1]
  AC50 cell viability: 5.9 µM
HCT116 [2]
  efficacy: -35.8%

## CNCCn1c(=O)c2cc(OC)c(OC)cc2c2cnc3cc4c(cc3c21)OCO4
HCT116 [1]
  AC50 cell viability: 0.0303 µM
HCT116 [2]
  efficacy: -80.9%

## C=CC(=O)Nc1cccc(Oc2nc(Nc3ccc(N4CCN(C)CC4)cc3)nc3ccsc23)c1 [Olmutinib]
HCT116 [1]
  AC50 cell viability: 8.33 µM
HCT116 [2]
  efficacy: -98.2%

## CC(C)(c1ccc(OCC(O)CO)cc1)c1ccc(OCC(O)CCl)cc1 (stereo not drawn) [Ralaniten (EPI-001)]
HCT116 [1]
  AC50 cell viability: 18.6 µM
HCT116 [2]
  efficacy: -37%

## C=CC(=O)N1CCC[C@@H](n2nc(-c3ccc(Oc4ccccc4)cc3)c3c(N)ncnc32)C1
HCT116 [1]
  AC50 cell viability: 16.6 µM
HCT116 [2]
  efficacy: -90.8%

## Cc1ccc(N[S+](=O)([O-])c2cccc(C#N)c2)c2[nH]cc(C#N)c12 [E-7820]
HCT116 [1]
  AC50 cell viability: 0.417 µM
HCT116 [2]
  efficacy: -53.2%

## Cc1ccc(-c2nn(C(C)(C)CNC(=O)c3ccncc3)c3ncnc(N)c23)cc1 [WEHI-345]
HCT116 [1]
  AC50 cell viability: 6.61 µM
HCT116 [2]
  efficacy: -53%

## CNC(=O)c1cc(Oc2ccc(NC(=O)Nc3ccc(Cl)c(C(F)(F)F)c3)c(F)c2)ccn1 [Regorafenib]
HCT116 [1]
  AC50 cell viability: 5.25 µM
HCT116 [2]
  efficacy: -85.3%

## O=C/1\C=C(/OC(=C1)/C2=C3SC4=C(SC3=CC=C2)C=CC=C4)N5CCOCC5 [KU-0064]
HCT116 [1]
  AC50 cell viability: 16.6 µM
HCT116 [2]
  efficacy: -77.5%

## Cc1nc(Nc2n[nH]c3c2CN(C(=O)N[C@H](CN(C)C)c2ccccc2)C3(C)C)c2sccc2n1
HCT116 [1]
  AC50 cell viability: 0.0186 µM
HCT116 [2]
  efficacy: -64.7%

## O=C(NCc1ccncc1)C12C[C@H]3C[C@@H](C1)CC(c1ccc(Cl)cc1)(C3)C2
HCT116 [1]
  AC50 cell viability: 20.9 µM
HCT116 [2]
  efficacy: -52.9%

## CN1C(=O)c2sccc2N(C)c2nc(Nc3ccc([S+](N)(=O)[O-])cc3)ncc21 [XMU-MP-1]
HCT116 [1]
  AC50 cell viability: 3.32 µM
HCT116 [2]
  efficacy: -99.2%

## Cc1ccc(C(=O)Nc2ccc(CN3CCN(C)CC3)c(C(F)(F)F)c2)cc1C#Cc1cnc2[nH]ncc2c1 [GZD-824]
HCT116 [1]
  AC50 cell viability: 0.934 µM
HCT116 [2]
  efficacy: -121%

## COC1=C(CN(C)C)C=C(OC)C(=C1)C/2=C/N(C)C(=O)C3=C2C=CN=C3 [BI-9564]
HCT116 [1]
  AC50 cell viability: 14.8 µM
HCT116 [2]
  efficacy: -71.5%

## CCN1CCN(Cc2ccc(Nc3ncc(F)c(-c4cc(F)c5nc(C)n(C(C)C)c5c4)n3)nc2)CC1 [Abemaciclib]
HCT116 [1]
  AC50 cell viability: 4.17 µM
HCT116 [2]
  efficacy: -109%

## Cc1cccc(Nc2nc(N[C@@H]3CCCC[C@@H]3N)ncc2C(N)=O)c1
HCT116 [1]
  AC50 cell viability: 7.42 µM
HCT116 [2]
  efficacy: -94.8%

## Cc1nc(NC(=O)N2CCCC2C(N)=O)sc1-c1ccnc(C(C)(C)C(F)(F)F)c1 (configuration not stated) [BYL-719]
HCT116 [1]
  AC50 cell viability: 3.72 µM
HCT116 [2]
  efficacy: -87.4%

## C[C@](O)(COc1ccc(C#N)cc1)C(=O)Nc1ccc(C#N)c(C(F)(F)F)c1 [Ostarine]
HCT116 [1]
  AC50 cell viability: 20.9 µM
HCT116 [2]
  efficacy: -91.5%

## CCNC(=O)C[C@H]1/N=C(/C2=CC=C(Cl)C=C2)C3=CC(=CC=C3[N]4C(=NN=C14)C)OC
HCT116 [1]
  AC50 cell viability: 14.8 µM
HCT116 [2]
  efficacy: -37.7%

## O=C(/C=C/c1ccc(CN(CCO)CCc2c[nH]c3ccccc23)cc1)NO [Dacinostat]
HCT116 [1]
  AC50 cell viability: 0.0833 µM
HCT116 [2]
  efficacy: -89.1%

## COc1ccc(OC)c(-c2nnc3ccc(-c4ccc(OC)c(O[C@@H]5CCOC5)c4)nn23)c1
HCT116 [1]
  AC50 cell viability: 2.95 µM
HCT116 [2]
  efficacy: -66.5%

## O=C(N[C@@H](c1ccccc1)[C@@H]1CCCCN1)c1cccc(C(F)(F)F)c1Cl
HCT116 [1]
  AC50 cell viability: 20.9 µM
HCT116 [2]
  efficacy: -108%

## C[C@H]1O[C@H]([C@H](O)[C@@H]1O)N2\C=C(F)/C(=O)NC2=O [Doxifluridine]
HCT116 [1]
  AC50 cell viability: 7.42 µM
HCT116 [2]
  efficacy: -68.1%

## Cn1cc(CNCC2CCN(c3ncc(C(=O)NO)cn3)CC2)c2ccccc21 [Quisinostat]
HCT116 [1]
  AC50 cell viability: 0.0742 µM
HCT116 [2]
  efficacy: -81.9%

## O=C(Nc1ccc(OC(F)(F)Cl)cc1)c1cnc(N2CC[C@@H](O)C2)c(-c2ccn[nH]2)c1 [Asciminib]
HCT116 [1]
  AC50 cell viability: 20.9 µM
HCT116 [2]
  efficacy: -80.6%

## COC(=O)c1ccc2c(c1)NC(=O)/C2=C(\Nc1ccc(N(C)C(=O)CN2CCN(C)CC2)cc1)c1ccccc1 [Nintedanib]
HCT116 [1]
  AC50 cell viability: 5.9 µM
HCT116 [2]
  efficacy: -92.2%

## COc1cc(/C=C/C(=O)CC(=O)/C=C/c2ccc(O)c(OC)c2)ccc1O [Curcumin]
HCT116 [1]
  AC50 cell viability: 4.17 µM
HCT116 [2]
  efficacy: -68%

## COCCn1c2c([n+](Cc3cnccn3)c1C)C(=O)c1ccccc1C2=O [Sepantronium bromide]
HCT116 [1]
  AC50 cell viability: 0.00833 µM
HCT116 [2]
  efficacy: -93.8%

## COc1cc(CCc2cc(NC(=O)c3ccc(N4C[C@@H](C)N[C@@H](C)C4)cc3)n[nH]2)cc(OC)c1 [AZD-4547]
HCT116 [1]
  AC50 cell viability: 10.5 µM
HCT116 [2]
  efficacy: -98.5%

## NC(=O)N1CCC(CC(=O)N2CCC([C@H]3c4ncc(Br)cc4CCc4cc(Cl)cc(Br)c43)CC2)CC1 [Lonafarnib]
HCT116 [1]
  AC50 cell viability: 18.6 µM
HCT116 [2]
  efficacy: -100%

## N[S+](=O)([O-])c1ccc(Cc2c(-c3cccc(-c4ccccc4)c3)nn(-c3nc(C(=O)O)cs3)c2CC2CC2)cc1
HCT116 [1]
  AC50 cell viability: 14.8 µM
HCT116 [2]
  efficacy: -43.2%

## FC(F)c1nc2ccccc2n1-c1nc(N2CCOCC2)nc(N2CCOCC2)n1 [ZSTK-474]
HCT116 [1]
  AC50 cell viability: 0.742 µM
HCT116 [2]
  efficacy: -58.2%
